Measurements: patent US9434724B2, “Quinuclidines for modulating alpha 7 activity” (priority 2014, dated 2016)

Molecular target: CYP2D6 (Homo sapiens (Human), UniProt P10635)
Test: Cytochrome P450 inhibition in human liver microsomes, CYP2D6
Settings: read-out: 2D6 IC50, Protocol 1

CYP2D6, sequence (P10635 whole entry): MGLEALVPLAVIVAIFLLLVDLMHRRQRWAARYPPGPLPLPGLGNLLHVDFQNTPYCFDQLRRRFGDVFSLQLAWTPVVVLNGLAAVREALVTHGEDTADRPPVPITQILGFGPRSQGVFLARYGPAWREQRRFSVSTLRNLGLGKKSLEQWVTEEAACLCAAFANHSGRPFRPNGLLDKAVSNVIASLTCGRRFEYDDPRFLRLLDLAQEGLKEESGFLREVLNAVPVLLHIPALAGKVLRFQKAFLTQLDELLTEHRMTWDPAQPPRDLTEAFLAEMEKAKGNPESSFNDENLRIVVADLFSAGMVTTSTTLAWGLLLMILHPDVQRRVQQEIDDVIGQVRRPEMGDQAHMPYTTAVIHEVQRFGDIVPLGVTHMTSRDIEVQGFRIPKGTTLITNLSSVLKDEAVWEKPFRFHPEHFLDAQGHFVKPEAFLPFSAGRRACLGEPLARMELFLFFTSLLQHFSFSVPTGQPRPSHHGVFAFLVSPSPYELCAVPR

Structure (SMILES) | IC50
COc1cc(Br)c2c(C(=O)OCC34CCN(CC3)CC4)c[nH]c2c1 [Compound 48, quinuclidin-4-ylmethyl 4-bromo-6-methoxy-1H-indole-3-carboxylate] | > 10 µM
O=C(OCC12CCN(CC1)CC2)c1c[nH]c2cc(O)cc(Br)c12 [Compound 53, quinuclidin-4-ylmethyl 4-bromo-6-hydroxy-1H-indole-3-carboxylate] | > 10 µM
Cc1cc2c(C(=O)OCC34CCN(CC3)CC4)c[nH]c2cc1O [Compound 55, quinuclidin-4-ylmethyl 6-hydroxy-5-methyl-1H-indole-3-carboxylate] | > 10 µM
COc1cc2c(C(=O)OCC34CCN(CC3)CC4)c[nH]c2cc1F [Compound 57, quinuclidin-4-ylmethyl 6-fluoro-5-methoxy-1H-indole-3-carboxylate] | > 10 µM

Molecular target: T1, CYP3A4 (Homo sapiens (Human), UniProt P08684)
Test: not given
Settings: microsomes, 5 min

T1 sequence (P08684 whole entry): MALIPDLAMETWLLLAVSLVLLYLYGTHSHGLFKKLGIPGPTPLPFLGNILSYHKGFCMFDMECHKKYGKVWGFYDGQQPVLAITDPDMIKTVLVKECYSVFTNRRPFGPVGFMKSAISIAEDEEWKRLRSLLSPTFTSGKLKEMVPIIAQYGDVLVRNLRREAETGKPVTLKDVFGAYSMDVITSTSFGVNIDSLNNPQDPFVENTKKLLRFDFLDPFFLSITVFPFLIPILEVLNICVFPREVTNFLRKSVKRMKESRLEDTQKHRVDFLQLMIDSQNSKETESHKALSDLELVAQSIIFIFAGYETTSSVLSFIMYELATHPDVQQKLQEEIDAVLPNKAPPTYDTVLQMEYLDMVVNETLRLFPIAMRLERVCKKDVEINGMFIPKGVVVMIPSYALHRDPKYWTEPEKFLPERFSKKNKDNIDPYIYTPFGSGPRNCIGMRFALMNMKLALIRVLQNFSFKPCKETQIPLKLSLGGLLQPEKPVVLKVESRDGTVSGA

Structure (SMILES) | IC50
Cc1cc2c(C(=O)OCC34CCN(CC3)CC4)c[nH]c2cc1O [Compound 55, quinuclidin-4-ylmethyl 6-hydroxy-5-methyl-1H-indole-3-carboxylate] | > 10 µM

Molecular target: rat brain nicotinic receptor (α7 NAChR) (Rattus norvegicus (Rat), UniProt Q05941)
Test: not given
Type: binding
Settings: not given

rat brain nicotinic receptor (α7 NAChR), sequence (Q05941 23-502 limits assumed): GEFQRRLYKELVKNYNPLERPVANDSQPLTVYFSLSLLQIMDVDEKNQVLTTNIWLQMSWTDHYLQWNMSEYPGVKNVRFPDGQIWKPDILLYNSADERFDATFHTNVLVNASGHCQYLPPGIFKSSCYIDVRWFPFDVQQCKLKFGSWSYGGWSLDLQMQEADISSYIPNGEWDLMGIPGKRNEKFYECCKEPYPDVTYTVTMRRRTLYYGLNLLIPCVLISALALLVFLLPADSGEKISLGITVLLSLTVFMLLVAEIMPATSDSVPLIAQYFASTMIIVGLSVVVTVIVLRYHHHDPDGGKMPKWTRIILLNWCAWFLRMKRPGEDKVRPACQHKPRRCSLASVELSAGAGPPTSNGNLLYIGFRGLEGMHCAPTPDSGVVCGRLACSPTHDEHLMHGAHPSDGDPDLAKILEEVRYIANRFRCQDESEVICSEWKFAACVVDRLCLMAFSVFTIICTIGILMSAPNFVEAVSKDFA

Structure (SMILES) | IC50 | Ki
COc1cc(Br)c2c(C(=O)OCC34CCN(CC3)CC4)c[nH]c2c1 [Compound 48, quinuclidin-4-ylmethyl 4-bromo-6-methoxy-1H-indole-3-carboxylate] | 0.42 µM | 0.36 µM
O=C(OCC12CCN(CC1)CC2)c1c[nH]c2cc(O)cc(Br)c12 [Compound 53, quinuclidin-4-ylmethyl 4-bromo-6-hydroxy-1H-indole-3-carboxylate] | 0.0536 µM | 0.046 µM
Cc1cc2c(C(=O)OCC34CCN(CC3)CC4)c[nH]c2cc1O [Compound 55, quinuclidin-4-ylmethyl 6-hydroxy-5-methyl-1H-indole-3-carboxylate] | 0.0523 µM | 0.0448 µM
COc1cc2c(C(=O)OCC34CCN(CC3)CC4)c[nH]c2cc1F [Compound 57, quinuclidin-4-ylmethyl 6-fluoro-5-methoxy-1H-indole-3-carboxylate] | 0.257 µM | 0.221 µM

Molecular target: CYP2C9 (Homo sapiens (Human), UniProt P11712)
Test: Cytochrome P450 inhibition in human liver microsomes, CYP2C9
Settings: read-out: 2C9 IC50, Protocol 1

CYP2C9, sequence (P11712 whole entry): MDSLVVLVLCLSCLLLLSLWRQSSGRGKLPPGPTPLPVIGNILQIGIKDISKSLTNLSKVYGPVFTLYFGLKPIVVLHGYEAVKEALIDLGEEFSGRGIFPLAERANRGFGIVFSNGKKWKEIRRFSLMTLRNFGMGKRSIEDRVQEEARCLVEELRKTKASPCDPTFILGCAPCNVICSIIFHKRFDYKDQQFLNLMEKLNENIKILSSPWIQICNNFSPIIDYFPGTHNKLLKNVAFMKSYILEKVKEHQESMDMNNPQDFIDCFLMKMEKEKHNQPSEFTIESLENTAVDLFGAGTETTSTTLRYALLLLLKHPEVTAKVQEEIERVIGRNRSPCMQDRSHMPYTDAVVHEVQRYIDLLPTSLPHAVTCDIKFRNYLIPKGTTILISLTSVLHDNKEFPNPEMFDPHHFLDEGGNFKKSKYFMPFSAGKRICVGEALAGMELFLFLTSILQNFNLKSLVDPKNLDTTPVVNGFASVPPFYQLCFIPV

Structure (SMILES) | IC50
O=C(OCC12CCN(CC1)CC2)c1c[nH]c2cc(O)cc(Br)c12 [Compound 53, quinuclidin-4-ylmethyl 4-bromo-6-hydroxy-1H-indole-3-carboxylate] | > 10 µM
COc1cc2c(C(=O)OCC34CCN(CC3)CC4)c[nH]c2cc1F [Compound 57, quinuclidin-4-ylmethyl 6-fluoro-5-methoxy-1H-indole-3-carboxylate] | > 10 µM

System: not listed separately
Test: Human plasma stability
Type: in vitro ADME
Settings: Protocol No. 2; plasma, 5 μM, 37° C.
Method in brief: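 Compound remaining was quantified by LC-MS/MS as peak-area ratio to internal standard relative to time 0, with half-lives from single-exponential fits. Protocol 1 incubated 1 μM in heparinized human plasma (pH 7.4, 37° C) to 120 min; protocol 2 used 5 μM, pH 7.4–8.0, 37° C, n=2, to 120 min.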

Structure (SMILES) | % Remaining @ 2 h
O=C(OCC12CCN(CC1)CC2)c1c[nH]c2cc(O)cc(Br)c12 [Compound 53, quinuclidin-4-ylmethyl 4-bromo-6-hydroxy-1H-indole-3-carboxylate] | 95.5%
COc1cc2c(C(=O)OCC34CCN(CC3)CC4)c[nH]c2cc1F [Compound 57, quinuclidin-4-ylmethyl 6-fluoro-5-methoxy-1H-indole-3-carboxylate] | 76.33%

Same assay, conditions: human, plasma, 2 h, 5 μM

Structure (SMILES) | % Remaining @ 2 h
COc1cc(Br)c2c(C(=O)OCC34CCN(CC3)CC4)c[nH]c2c1 [Compound 48, quinuclidin-4-ylmethyl 4-bromo-6-methoxy-1H-indole-3-carboxylate] | 101.03%
Cc1cc2c(C(=O)OCC34CCN(CC3)CC4)c[nH]c2cc1O [Compound 55, quinuclidin-4-ylmethyl 6-hydroxy-5-methyl-1H-indole-3-carboxylate] | 40.33%

System: not listed separately
Test: Metabolic stability assay in rat liver microsomes (RLM)
Type: in vitro ADME
Settings: Protocol No. 1; rat liver microsomes, 1 μM
Method in brief: (§1)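 In Protocol 1, compound was 1 μM final with NADPH at 37 °C, sampled at 0–45 min. In Protocol 2, 1.5 μM compound with 0.75 mg/mL microsomes (pre-NADPH mix) in 0.1 M potassium phosphate, 1 mM EDTA, pH 7.4 was pre-incubated 10 min, then NADPH started the reaction. Both: LC-MS/MS % remaining versus time 0, half-life from single-phase exponential fit.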

Structure (SMILES) | RLM
O=C(OCC12CCN(CC1)CC2)c1c[nH]c2cc(O)cc(Br)c12 [Compound 53, quinuclidin-4-ylmethyl 4-bromo-6-hydroxy-1H-indole-3-carboxylate] | 29.9085 mL/min/kg
COc1cc2c(C(=O)OCC34CCN(CC3)CC4)c[nH]c2cc1F [Compound 57, quinuclidin-4-ylmethyl 6-fluoro-5-methoxy-1H-indole-3-carboxylate] | 153.227 mL/min/kg

Same assay, conditions: rat, microsomes, 1 μM

Structure (SMILES) | RLM
COc1cc(Br)c2c(C(=O)OCC34CCN(CC3)CC4)c[nH]c2c1 [Compound 48, quinuclidin-4-ylmethyl 4-bromo-6-methoxy-1H-indole-3-carboxylate] | 69.1781 mL/min/kg
Cc1cc2c(C(=O)OCC34CCN(CC3)CC4)c[nH]c2cc1O [Compound 55, quinuclidin-4-ylmethyl 6-hydroxy-5-methyl-1H-indole-3-carboxylate] | 45.1417 mL/min/kg

Molecular target: T2, CYP2C19 (Homo sapiens (Human), UniProt P33261)
Test: Cytochrome P450 inhibition in human liver microsomes, CYP2C19
Settings: read-out: 2C19 IC50, Protocol 1

T2 sequence (P33261 whole entry): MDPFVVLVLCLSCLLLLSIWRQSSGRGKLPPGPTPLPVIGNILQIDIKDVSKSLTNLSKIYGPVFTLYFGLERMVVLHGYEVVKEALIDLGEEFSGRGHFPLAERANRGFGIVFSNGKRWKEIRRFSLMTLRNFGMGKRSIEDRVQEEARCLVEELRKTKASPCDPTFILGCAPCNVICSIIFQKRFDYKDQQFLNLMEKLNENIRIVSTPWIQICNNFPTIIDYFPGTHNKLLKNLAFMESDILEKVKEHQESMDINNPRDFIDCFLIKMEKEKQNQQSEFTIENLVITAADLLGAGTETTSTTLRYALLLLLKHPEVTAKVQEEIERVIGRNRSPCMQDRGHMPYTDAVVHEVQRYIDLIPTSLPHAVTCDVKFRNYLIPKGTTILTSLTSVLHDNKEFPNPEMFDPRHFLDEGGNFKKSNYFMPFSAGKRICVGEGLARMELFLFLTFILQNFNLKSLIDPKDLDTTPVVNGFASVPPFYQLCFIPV

Structure (SMILES) | IC50
O=C(OCC12CCN(CC1)CC2)c1c[nH]c2cc(O)cc(Br)c12 [Compound 53, quinuclidin-4-ylmethyl 4-bromo-6-hydroxy-1H-indole-3-carboxylate] | > 10 µM
COc1cc2c(C(=O)OCC34CCN(CC3)CC4)c[nH]c2cc1F [Compound 57, quinuclidin-4-ylmethyl 6-fluoro-5-methoxy-1H-indole-3-carboxylate] | > 10 µM

System: not listed separately
Test: Metabolic stability assay in human liver microsomes (HLM)
Type: in vitro ADME
Settings: Protocol No. 1; human liver microsomes, 1 μM
Method in brief: as §1

Structure (SMILES) | HLM
O=C(OCC12CCN(CC1)CC2)c1c[nH]c2cc(O)cc(Br)c12 [Compound 53, quinuclidin-4-ylmethyl 4-bromo-6-hydroxy-1H-indole-3-carboxylate] | 8.304 mL/min/kg
COc1cc2c(C(=O)OCC34CCN(CC3)CC4)c[nH]c2cc1F [Compound 57, quinuclidin-4-ylmethyl 6-fluoro-5-methoxy-1H-indole-3-carboxylate] | 0 mL/min/kg

Same assay, conditions: human, microsomes, 1 μM

Structure (SMILES) | HLM
COc1cc(Br)c2c(C(=O)OCC34CCN(CC3)CC4)c[nH]c2c1 [Compound 48, quinuclidin-4-ylmethyl 4-bromo-6-methoxy-1H-indole-3-carboxylate] | 7.539 mL/min/kg
Cc1cc2c(C(=O)OCC34CCN(CC3)CC4)c[nH]c2cc1O [Compound 55, quinuclidin-4-ylmethyl 6-hydroxy-5-methyl-1H-indole-3-carboxylate] | 10.3473 mL/min/kg

Molecular target: T2, CYP2C19
Test: not given
Settings: microsomes, 45 min

Structure (SMILES) | IC50
COc1cc(Br)c2c(C(=O)OCC34CCN(CC3)CC4)c[nH]c2c1 [Compound 48, quinuclidin-4-ylmethyl 4-bromo-6-methoxy-1H-indole-3-carboxylate] | > 10 µM
Cc1cc2c(C(=O)OCC34CCN(CC3)CC4)c[nH]c2cc1O [Compound 55, quinuclidin-4-ylmethyl 6-hydroxy-5-methyl-1H-indole-3-carboxylate] | > 10 µM

Molecular target: CYP1A2 (Homo sapiens (Human), UniProt P05177)
Test: Cytochrome P450 inhibition in human liver microsomes, CYP1A2
Settings: read-out: 1A2 IC50, Protocol 1

CYP1A2, sequence (P05177 whole entry): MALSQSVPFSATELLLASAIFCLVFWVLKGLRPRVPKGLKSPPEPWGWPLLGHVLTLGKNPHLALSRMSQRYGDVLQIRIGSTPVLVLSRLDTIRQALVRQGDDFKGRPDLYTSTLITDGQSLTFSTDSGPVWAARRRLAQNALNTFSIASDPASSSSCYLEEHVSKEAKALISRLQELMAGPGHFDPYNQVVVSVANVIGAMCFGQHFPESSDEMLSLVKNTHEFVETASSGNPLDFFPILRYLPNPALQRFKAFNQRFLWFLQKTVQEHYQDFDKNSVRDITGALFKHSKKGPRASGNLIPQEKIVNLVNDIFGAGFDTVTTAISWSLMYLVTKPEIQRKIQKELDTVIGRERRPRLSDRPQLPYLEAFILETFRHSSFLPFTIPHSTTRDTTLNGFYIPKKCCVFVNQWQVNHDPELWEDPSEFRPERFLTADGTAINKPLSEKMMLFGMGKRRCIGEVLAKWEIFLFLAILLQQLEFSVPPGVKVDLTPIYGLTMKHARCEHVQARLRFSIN

Structure (SMILES) | IC50
COc1cc(Br)c2c(C(=O)OCC34CCN(CC3)CC4)c[nH]c2c1 [Compound 48, quinuclidin-4-ylmethyl 4-bromo-6-methoxy-1H-indole-3-carboxylate] | > 10 µM
O=C(OCC12CCN(CC1)CC2)c1c[nH]c2cc(O)cc(Br)c12 [Compound 53, quinuclidin-4-ylmethyl 4-bromo-6-hydroxy-1H-indole-3-carboxylate] | > 10 µM
Cc1cc2c(C(=O)OCC34CCN(CC3)CC4)c[nH]c2cc1O [Compound 55, quinuclidin-4-ylmethyl 6-hydroxy-5-methyl-1H-indole-3-carboxylate] | > 10 µM
COc1cc2c(C(=O)OCC34CCN(CC3)CC4)c[nH]c2cc1F [Compound 57, quinuclidin-4-ylmethyl 6-fluoro-5-methoxy-1H-indole-3-carboxylate] | > 10 µM

Molecular target: T1, CYP3A4
Test: Cytochrome P450 inhibition in human liver microsomes, CYP3A4
Settings: read-out: 3A4 IC50 (Midazolam), substrate midazolam, Protocol 1

Structure (SMILES) | IC50
COc1cc(Br)c2c(C(=O)OCC34CCN(CC3)CC4)c[nH]c2c1 [Compound 48, quinuclidin-4-ylmethyl 4-bromo-6-methoxy-1H-indole-3-carboxylate] | > 10 µM
O=C(OCC12CCN(CC1)CC2)c1c[nH]c2cc(O)cc(Br)c12 [Compound 53, quinuclidin-4-ylmethyl 4-bromo-6-hydroxy-1H-indole-3-carboxylate] | > 10 µM
COc1cc2c(C(=O)OCC34CCN(CC3)CC4)c[nH]c2cc1F [Compound 57, quinuclidin-4-ylmethyl 6-fluoro-5-methoxy-1H-indole-3-carboxylate] | > 10 µM

Same assay, conditions: read-out: 3A4 IC50 (Testosterone), substrate testosterone, Protocol 1

Structure (SMILES) | IC50
COc1cc(Br)c2c(C(=O)OCC34CCN(CC3)CC4)c[nH]c2c1 [Compound 48, quinuclidin-4-ylmethyl 4-bromo-6-methoxy-1H-indole-3-carboxylate] | > 10 µM
O=C(OCC12CCN(CC1)CC2)c1c[nH]c2cc(O)cc(Br)c12 [Compound 53, quinuclidin-4-ylmethyl 4-bromo-6-hydroxy-1H-indole-3-carboxylate] | > 10 µM
COc1cc2c(C(=O)OCC34CCN(CC3)CC4)c[nH]c2cc1F [Compound 57, quinuclidin-4-ylmethyl 6-fluoro-5-methoxy-1H-indole-3-carboxylate] | > 10 µM
